Assays:
[1] = test system: stimulus-induced acetylcholine release, slices from the parietal cortex; assay: Neurotransmitter (ACh) release assay, rat cortex slices, K+ stimulated; type: cell-based, rat (male Wistar); settings: for EC50: Table III
Experimental: The neurotransmitter release activities of the compounds of this invention were determined using standard biochemical assay procedures for example, the neurotransmitter release assay as described below.
Neurotransmitter release assay.
The neurotransmitter (Ach) release activities of the compounds of this invention were determined by the assay as described by Nickolson, et al., Drug Development Research, (1990) 19: 285-300, a modification of the procedure described by Mulder, et al., Brain Res., (1974) 70: 372.
Male Wistar rats (Charies River) weighing 175-200 grams were used. Rats were decapitated and brains were dissected immediately. Slices (0.3 mm thick) from the parietal cortex were prepared (approximately 100 mg wet weight) and were incubated in 10 ml KrebsRinger medium (KR) containing NaCl (116 mM), KCl (3 mM), CaCl2 (1.3 mM), MgCl2 (1.2 mM), KH2 PO4 (1.2 mM), Na2 SO4 (1.2 mM), NaHCO3 (25.0 mM), and glucose (11.0 mM), to which was added 10 uCi ^3 H-choline (specific activity approximately 35 Ci/mM; NEN) and […] unlabeled choline to give a final concentration of one micromole. The brain preparations were incubated for 30 min. at 37° C. under a steady flow of 95% O2 /5% CO2. Under these conditions, part of the radioactive choline taken up by the preparation was converted into radioactive acetylcholine (ACh) by the cholinergic nerve endings stored in synaptic vesicles, and released upon depolarization by high potassium ion (K+) containing media.
After labelling of the ACh stores, the slices were washed three times with non-radioactive KR medium and transferred to a superfusion apparatus to measure the drug effects on ACh release. The superfusion apparatus consisted of 10 thermostated glass columns of 5 mm diameter that were provided with GF/F glass fiber filters to support the slices (approximately 10 mg tissue/column). Superfusion was carried out in KR-medium (0.3 ml/min.) containing […] hemicholine-3 (HC-3). The HC-3 prevents the reuptake of choline formed during the superfusion from phospholipids and released ACh, which would be converted into unlabeled ACh and released in preference to the preformed labeled ACh. The medium was delivered by a 25-channel peristaltic pump (Ismatec by Brinkman) and warmed to 37° C. in a thermostated stainless steel coil before entering the superfusion column. Each column was provided with a 4-way slider valve (Beckmann instruments) which allowed rapid change of low to high K+/KR-medium, and with two 10-channel 3-way valves that were used to change from drug-free to drug-containing low and high K+/KR-medium. After 15 min. of washout of non-specifically bound radioactivity, collection of 4 min. fractions was initiated. After three 4 min. collections, the original medium was changed to a KR-medium in which the KCl concentration had been increased to 25 mM (high K+ medium) (S1). Depolarization-induced stimulation of release by high K+/KR-medium lasted for 4 min. Drug free low and high K+/KR-media were then substituted by drug- and vehicle-containing low- and high-K+/KR-medium, and superfusion was continued for three 4 min. collections with low K+/KR-medium, one 4 min. collection with high K+/KR-medium (s2), and two 4 min. collections with low K+/KR-medium.
Drug was added to the media by 100-fold dilutions of appropriate concentrations of the drug (in 0.9% saline) with either low- or high-K+/KR-medium. For comparative purposes, linopirdine was also run.
All superfusion fractions were collected in liquid scintillation counting vials. After superfusion, the slices were removed from the superfusion columns and extracted with 1.0 ml of 0.1N HCl. Liquiscint (NEN) counting fluid (12 ml) was added to superfusion fractions and extracts, and the samples were counted in a Packard Tricarb Liquid Scintillation Counter. No corrections were made for quenching. […]

[2] = test system: ACh level in the rat hippocampus; assay: Microdialysis, ACh levels in the rat hippocampus in vivo; set-up: species or system rat (male Wistar); settings: for AUC, Area % under the curve / Peak, maximal % increase of ACh release over baseline / time of Peak after administration / Duration, minutes of release above statistical significance: Table IV
Experimental: Male Wistar Rats are anaesthetized and guide cannulas stereotaxically implanted into the brain at the level of the dorsal hippocampus. Following a minimum recovery period of 72 h, dialysis probes (0.5 mm diameter, 4.0 mm long, from BAS) are inserted into the hippocampus through the guide cannulas. The probes are perfused at a rate of 2 μl/min with artificial cerebrospinal fluid containing 100 μM physostigmine sulfate (a cholinesterase inhibitor). Rats are allowed to acclimate for 2 hours prior to sample collection. Dialysate samples are collected every 20 min (40 μl) and immediately injected onto a high performance liquid chromatograph equipped for electrochemical detection (HPLC-EC) of acetylcholine (ACh). Following collection of 3 baseline samples, drugs or vehicle control are administered in 0.01 ml/g body weight and dialysate samples are collected for an additional 3 h. The ACh peak heights of the 3 samples prior to drug administration are averaged together to determine baseline ACh levels. ACh peak heights post drug administration are measured and used to determine percent change over baseline ACh levels. At the end of experiments, probe placement is verified histologically.
ACh is separated by reverse phase chromatography (Hamilton PRP-1 column 150×4.5 mm) and converted to acetate, betaine and hydrogen peroxide on an immobilized enzyme reactor column (BAS). Hydrogen peroxide is then detected electrochemically. Mobile phase for the chromatography consists of 0.2M Na2 HPO4, 0.1 mM EDTA, 0.5 mM SOS, 0.9 mM TMA.Cl, with pH adjusted to 8.0 with phosphoric acid and […] Kathon CG (ESA) added to each liter of mobile phase to retard bacterial growth.
FIGS. 1 and 2 show the effects of fluorine substitution to the pendant groups of the anthrone and azafluorene core series on the ability of compounds to increase the level of ACh in the rat hippocampus in vivo. All compounds were tested at 5 mg/kg except Ex. No 64 which was administered at 1 mg/kg. […] This was observed even though the compound was administered by a route (i.p.) which should lead to greater bioavailability than the oral route. Example 68 of the present invention, the bis-fluorinated analog of Example 611 or U.S. Pat. No. 5,173,489, on the other hand, led to a 2-fold increase in ACh levels which was maintained for over 1 hour (FIG. 1). The anthrone compound Ex. No. 440 of U.S. Pat. No. 5,173,489, at 5 mg/kg, led to a peak ACh level of 72% over baseline (FIG. 2). Ex. No. 64 of the present invention, which is the bis-fluoro analog of Ex. No. 440 of U.S. Pat. No. 5,173,489, at 1 mg/kg, led to a delayed increase in ACh levels reaching a peak of over 100% above baseline (FIG. 2). In contrast to the observed effects of Example 440 of U.S. Pat. No. 5,173,489, the increase in ACh level after administration of Example 64 of the present invention was maintained for the entire duration of testing (3 hours).

[3] = 5 mg/kg, vehicle water, NSP = no significant points
[4] = 1 mg/kg, vehicle methocel, NSP = no significant points
[5] = 5 mg/kg, vehicle methocel, NSP = no significant points

Row | SMILES | AUC, Area % under the curve ([2]; 5 mg/kg, vehicle water) [%] | Peak, maximal % increase of ACh release over baseline ([2]; 5 mg/kg, vehicle water) [%] | time of Peak after administration ([2]; 5 mg/kg, vehicle water) [min] | Duration, minutes of release above statistical significance [2, 3] | EC50 [1] [µM] | AUC, Area % under the curve ([2]; 5 mg/kg, vehicle methocel) [%] | Peak, maximal % increase of ACh release over baseline ([2]; 5 mg/kg, vehicle methocel) [%] | time of Peak after administration ([2]; 5 mg/kg, vehicle methocel) [min] | Duration, minutes of release above statistical significance [2, 5] | other results
1 | Fc1cc(CC2(Cc3ccncc3)c3ccccc3-c3sccc32)ccn1 (centres unmarked) [Example 7, 2-Fluoro-4-[4-(4-pyridinylmethyl)-4H-indeno[1,2-B]thiophen-4-ylmethyl]-pyridine] | 235 ± 87 | 53 ± 19 | 180 | NSP |  |  |  |  |  | activation at 10 µM ([1]; Table II, 10 μM, % increase of drug-induced ACh release): 439%
2 | Fc1cc(CC2(Cc3ccncc3)c3ccccc3-c3ncccc32)ccn1 (centres unmarked) [Example 62] | 160 ± 187 | 47 ± 32 | 40 | NSP | 0.3 |  |  |  |  | AUC, Area % under the curve ([2]; 10 mg/kg, vehicle water): 221 ± 85%; Duration, minutes of release above statistical significance ([2]; 10 mg/kg, vehicle water): > 40 min; Peak, maximal % increase of ACh release over baseline ([2]; 10 mg/kg, vehicle water): 52 ± 10%; time of Peak after administration ([2]; 10 mg/kg, vehicle water): 20 min
3 | O=C1c2ccccc2C(Cc2ccnc(F)c2)(Cc2ccnc(F)c2)c2ccccc21 [Example 64, 10,10-Bis((2-fluoro-4-pyridinyl)methyl)-9(10H)-anthracenone] |  |  |  |  | 0.66 |  |  |  |  | peak ACh level above baseline ([2]; 1 mg/kg oral, FIG. 2, delayed increase): over 100%; time for which the increase in ACh level was maintained ([2]; 1 mg/kg oral, FIG. 2, entire duration of testing): ≥ 3 h; AUC, Area % under the curve ([2]; 0.5 mg/kg, vehicle methocel): 253 ± 156%; Peak, maximal % increase of ACh release over baseline ([2]; 0.5 mg/kg, vehicle methocel): 40 ± 21%; time of Peak after administration ([2]; 0.5 mg/kg, vehicle methocel): 40 min; Duration, minutes of release above statistical significance ([2]; 0.5 mg/kg, vehicle methocel, NSP = no significant points): NSP; AUC, Area % under the curve ([2]; 1 mg/kg, vehicle methocel): 711 ± 158%; Peak, maximal % increase of ACh release over baseline ([2]; 1 mg/kg, vehicle methocel): 115 ± 27%; time of Peak after administration ([2]; 1 mg/kg, vehicle methocel): 180 min; Duration, minutes of release above statistical significance [2, 4]: >
4 | Fc1cc(CC2(Cc3ccncc3)c3ccccc3Oc3ccccc32)ccn1 [Example 65, 9-((2-Fluoro-4-pyridinyl)methyl)-9-(4-pyridinylmethyl)-9H-xanthene] |  |  |  |  | 0.82 | 147 ± 69 | 40 ± 11 | 20 | 60 min | 
5 | Fc1cc(CC2(Cc3ccnc(F)c3)c3ccccc3Oc3ncccc32)ccn1 [Example 67, 9,9-Bis((2-fluoro-4-pyridinyl)methyl)-4-azaxanthene] |  |  |  |  | 0.64 | 1423 ± 595 | 199 ± 80 | 160 | > | AUC, Area % under the curve ([2]; 1 mg/kg, vehicle methocel): 666 ± 212%; Peak, maximal % increase of ACh release over baseline ([2]; 1 mg/kg, vehicle methocel): 123 ± 62%; time of Peak after administration ([2]; 1 mg/kg, vehicle methocel): 200 min; Duration, minutes of release above statistical significance [2, 4]: >
6 | Fc1cc(CC2(Cc3ccnc(F)c3)c3ccccc3-c3ncccc32)ccn1 [Example 68, 5,5-Bis((2-fluoro-4-pyridinyl)methyl)-5H-indeno[1,2-b]pyridine] | 871 ± 272 | 121 ± 25 | 100 | 120 min | 0.76 | 942 ± 324 | 201 ± 68 | 80 | > 80 min | increase in ACh levels ([2]; 5 mg/kg oral, FIG. 1): 2 fold; time for which the increase in ACh levels was maintained ([2]; 5 mg/kg oral, FIG. 1): over 1 hour; AUC, Area % under the curve ([2]; 1 mg/kg, vehicle methocel): 304 ± 88%; Peak, maximal % increase of ACh release over baseline ([2]; 1 mg/kg, vehicle methocel): 74 ± 29%; time of Peak after administration ([2]; 1 mg/kg, vehicle methocel): 100 min; Duration, minutes of release above statistical significance [2, 4]: 120 min; AUC, Area % under the curve ([2]; 2 mg/kg, vehicle water): 240 ± 82%; Peak, maximal % increase of ACh release over baseline ([2]; 2 mg/kg, vehicle water): 47 ± 12%; time of Peak after administration ([2]; 2 mg/kg, vehicle water): 40 min
7 | Fc1cc(CC2(Cc3ccnc(F)c3)c3cccnc3-c3sccc32)ccn1 [Example 69, 4,4-Bis((2-fluoro-4-pyridinyl)methyl)-4H-thieno[3',2':4,5]cyclopenta[1,2-b]pyridine] | 285 ± 40 | 44 ± 14 | 20 | 40 min | 0.65 |  |  |  |  | 
8 | COc1ccc2c(c1)C(Cc1ccnc(F)c1)(Cc1ccnc(F)c1)c1ccccc1-2 [Example 71, 9,9-Bis((2-fluoro-4-pyridinyl)methyl)-2-methoxyfluorene] |  |  |  |  | 1.24 | 126 ± 74 | 34 ± 16 | 60 | NSP | 
9 | COc1ccc2c(c1)C(Cc1ccnc(F)c1)(Cc1ccnc(F)c1)c1cccnc1O2 [Example 72, 9,9-Bis((2-fluoro-4-pyridinyl)methyl)-7-methoxy-4-azaxanthene] |  |  |  |  | 0.85 | 138 ± 109 | 34 ± 22 | 60 | NSP | 
10 | Fc1cc(CC2(Cc3ccnc(F)c3)c3ccccc3-c3nccnc32)ccn1 [Example 80, 9,9-Bis((2-fluoro-4-pyridinyl)methyl)-9H-indeno-[1,2-b]pyrazine] |  |  |  |  | 2.33 |  |  |  |  | 
11 | Nc1cccc2c1C(Cc1ccnc(F)c1)(Cc1ccnc(F)c1)c1ccccc1-2 [Example 96, 9,9-Bis((2-fluoro-4-pyridinyl)methyl)-9H-fluoren-1-amine] |  |  |  |  | 0.57 |  |  |  |  | 

Reference: patent US5594001A, “Polycyclic systems, and derivatives thereof, as neurotransmitter release enhancers useful in the treatment of cognitive disorders” (The DuPont Merck Pharmaceutical Company, priority 1994, dated 1997)
